Measurements as given in the supplement of paper PMC10307832.

Tests used:
Test in all cases: relative viability (nuclei count vs DMSO), 5 days (fraction); higher = more cells survive
[1] = compound: O=C(CCCCCCNC(=O)c1cnc(N(c2ccccc2)c2ccccc2)nc1)NO [Ricolinostat] + Nc1ncn([C@H]2C[C@H](O)[C@@H](CO)O2)c(=O)n1 [Decitabine] (partner 2 µM)
Summary of the method: (§1)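 One day after seeding in 1536-well plates, lung cancer cell lines were dosed by pin tool. Dosing was either single-drug or a fixed anchor-drug dose plus five library-drug doses (not always all listed) in √10 steps. After 5 days, nuclei were stained in one fix-and-stain step and counted on 4× images, and relative viability is the nuclei count of treated wells over that of vehicle wells, given as the median of duplicate plates.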

Ricolinostat + Alpelisib = compound: O=C(CCCCCCNC(=O)c1cnc(N(c2ccccc2)c2ccccc2)nc1)NO [Ricolinostat] + Cc1nc(NC(=O)N2CCC[C@H]2C(N)=O)sc1-c1ccnc(C(C)(C)C(F)(F)F)c1 [Alpelisib] (partner 2 µM)
Summary of the method: as §1

[2] = compound: C1=CC=C(C(=C1)C2=CC=C(C=C2)C3=CSC4=C3C(=C(C(=O)N4)C#N)O)O + CC(=O)Nc1cccc(-n2c(=O)n(C3CC3)c(=O)c3c(Nc4ccc(I)cc4F)n(C)c(=O)c(C)c32)c1 [Trametinib] (partner 0.02 µM)
Summary of the method: as §1

[3] = compound: C1=CC=C(C(=C1)C2=CC=C(C=C2)C3=CSC4=C3C(=C(C(=O)N4)C#N)O)O + Nc1nc2[nH]cc(CCc3ccc(C(=O)N[C@@H](CCC(=O)O)C(=O)O)cc3)c2c(=O)[nH]1 [Pemetrexed] (partner 0.2 µM)
Summary of the method: as §1

Row | Cell Line | relative viability ([1]; first compound 0.08 µM) | relative viability ([1]; first compound 0.253 µM) | relative viability ([1]; first compound 0.8 µM) | relative viability ([1]; first compound 2.53 µM) | relative viability (Ricolinostat + Alpelisib; first compound 0.08 µM) | relative viability (Ricolinostat + Alpelisib; first compound 0.253 µM) | relative viability (Ricolinostat + Alpelisib; first compound 0.8 µM) | relative viability (Ricolinostat + Alpelisib; first compound 2.53 µM) | relative viability ([2]; first compound 0.08 µM) | relative viability ([2]; first compound 0.253 µM) | relative viability ([2]; first compound 0.8 µM) | relative viability ([2]; first compound 2.53 µM) | relative viability ([2]; first compound 8 µM) | relative viability ([3]; first compound 0.08 µM) | relative viability ([3]; first compound 0.253 µM) | relative viability ([3]; first compound 0.8 µM) | relative viability ([3]; first compound 2.53 µM) | relative viability ([3]; first compound 8 µM)
1 | HOP-62 | 0.217 | 0.186 | 0.144 | 0.221 | 0.932 | 0.901 | 0.844 | 0.848 | 0.38 | 0.431 | 0.41 | 0.378 | 0.337 | 0.364 | 0.336 | 0.301 | 0.348 | 0.279
2 | SK-MES-1 | 0.402 | 0.384 | 0.344 | 0.375 | 0.541 | 0.761 | 0.805 | 0.591 | 0.588 | 0.625 | 0.582 | 0.554 | 0.551 | 1.02 | 1.03 | 1.02 | 0.987 | 1.02
3 | NCI-H1755 | 0.66 | 0.649 | 0.696 | 0.665 | 0.771 |  | 0.92 | 0.902 | 0.758 | 0.775 | 0.8 | 0.862 | 0.797 | 0.463 | 0.469 | 0.545 | 0.439 | 0.714
4 | NCI-H838 | 0.44 | 0.471 | 0.489 | 0.539 | 0.903 | 1.08 | 1.04 | 1.08 | 0.488 | 0.485 | 0.654 | 0.456 | 0.331 | 0.209 | 0.291 | 0.253 | 0.233 | 0.243
5 | NCI-H322M | 0.616 | 0.708 | 0.721 | 0.754 |  | 0.829 | 0.795 | 0.715 | 0.501 | 0.464 | 0.548 | 0.539 | 0.503 | 0.561 | 0.574 | 0.657 | 0.576 | 0.559
6 | NCI-H441 | 0.28 | 0.227 | 0.202 | 0.214 | 0.597 | 0.596 | 0.803 | 0.539 | 0.35 | 0.443 | 0.431 | 0.496 | 0.362 | 0.26 | 0.282 | 0.232 | 0.237 | 0.267
7 | EMC-BAC-2 | 0.796 | 0.938 | 0.901 | 0.722 | 0.644 | 0.669 | 0.768 | 0.816 | 0.942 |  | 0.889 | 0.892 | 0.913 | 0.447 | 0.618 | 0.444 | 0.451 | 0.418
8 | HARA | 0.335 | 0.408 | 0.464 | 0.405 | 0.545 | 0.79 | 0.693 | 0.618 | 0.689 | 0.705 | 0.959 | 0.659 | 0.554 | 0.241 | 0.274 | 0.219 | 0.197 | 0.264
9 | NCI-H1944 | 0.409 | 0.37 | 0.382 | 0.385 | 0.649 | 0.783 | 0.74 | 0.58 | 0.459 | 0.396 | 0.357 | 0.423 | 0.434 | 0.609 | 0.697 | 0.571 | 0.646 | 0.632
10 | COR-L 105 | 0.675 | 0.65 | 0.7 | 0.669 | 0.698 | 0.98 | 0.934 | 1.25 | 0.466 | 0.46 | 0.482 | 0.444 | 0.408 | 0.948 | 1.16 | 1.1 | 1.11 | 1.15
11 | 201T | 0.843 | 0.847 | 0.873 | 0.887 | 0.905 | 0.946 | 1.03 | 0.887 | 0.734 | 0.744 | 0.737 | 0.734 | 0.832 | 0.354 | 0.331 | 0.358 | 0.353 | 0.298
12 | NCI-H460 | 0.496 | 0.429 | 0.519 | 0.427 | 0.321 | 0.461 | 0.421 | 0.402 | 0.0954 | 0.101 | 0.201 | 0.108 | 0.151 | 0.0846 | 0.0612 | 0.0666 | 0.0616 | 0.0618
13 | LOU-NH91 |  | 0.794 | 0.826 | 0.887 |  | 0.735 | 0.709 | 0.699 | 0.778 | 0.865 | 0.794 | 0.753 | 0.705 | 0.386 | 0.337 | 0.399 | 0.384 | 0.406
14 | NCI-H2170 | 0.471 | 0.454 | 0.452 | 0.482 | 0.687 | 0.764 | 0.862 | 0.934 | 0.87 | 0.979 | 0.865 | 0.986 | 0.778 | 0.279 | 0.268 | 0.285 | 0.254 | 0.261
15 | LU99A | 0.883 | 0.899 | 0.722 | 0.748 | 0.438 | 0.512 | 0.362 | 0.437 | 0.566 | 0.589 | 0.596 | 0.585 | 0.605 | 0.191 | 0.138 | 0.265 | 0.178 | 0.335
16 | NCI-H358 | 0.247 | 0.212 | 0.214 | 0.179 | 0.733 | 0.997 | 0.952 | 1.05 | 0.13 | 0.149 | 0.131 | 0.135 | 0.14 | 0.156 | 0.188 | 0.175 | 0.162 | 0.176
17 | SW 1573 | 0.487 | 0.496 | 0.546 | 0.416 | 0.506 | 0.862 | 0.751 | 0.832 | 0.608 | 0.522 | 0.654 | 0.659 | 0.434 | 0.61 | 0.982 | 0.788 | 0.851 | 0.728
18 | LK-2 | 0.268 | 0.364 | 0.24 | 0.212 |  | 0.995 | 1.07 | 1.62 | 0.594 | 0.609 | 0.95 | 0.745 | 0.598 | 0.168 | 0.245 | 0.236 | 0.325 | 0.196
19 | NCI-H596 | 0.992 | 0.981 | 0.99 | 1.67 | 0.429 | 0.492 | 0.446 | 0.463 | 0.73 | 0.827 | 0.891 | 0.695 | 0.747 | 0.532 | 0.545 | 0.544 | 0.44 | 0.488
20 | NCI-H1437 | 0.448 | 0.545 | 0.543 | 0.467 | 0.888 | 1.03 | 0.907 | 0.722 | 0.485 | 0.606 | 0.534 | 0.518 | 0.298 | 0.301 | 0.371 | 0.324 | 0.323 | 0.323
21 | PC-3 [JPC-3] | 0.766 | 0.736 | 0.757 | 0.758 | 0.941 | 0.996 | 0.948 | 0.909 | 0.756 | 0.789 | 0.683 | 0.701 | 0.692 | 1.08 | 1.19 | 1.06 | 0.942 | 0.98
22 | NCI-H1395 |  | 0.731 | 0.652 | 0.663 |  | 1.12 | 1.13 | 1.26 |  | 1.02 | 0.974 | 0.938 | 1.01 |  | 0.841 | 0.776 | 0.812 | 0.894
23 | NCI-H1651 | 0.466 | 0.644 | 0.56 | 0.521 | 0.885 | 0.997 | 0.917 | 0.884 | 0.895 | 0.875 | 0.809 | 0.858 | 0.677 | 0.386 | 0.62 | 0.513 | 0.617 | 0.549
24 | NCI-H23 | 0.325 | 0.316 | 0.319 | 0.323 | 0.56 | 0.644 | 0.882 | 0.703 | 0.333 | 0.321 | 0.383 | 0.379 | 0.261 | 0.536 | 0.619 | 0.59 | 0.627 | 0.653
25 | NCI-H661 | 0.552 | 0.511 | 0.581 | 0.489 |  | 0.597 | 0.642 | 0.844 | 0.5 | 0.573 | 0.603 | 0.569 | 0.501 | 0.834 | 1 | 0.933 | 0.937 | 0.85
